Paper PMC7914897, “Cytotoxic Potential of a-Azepano- and 3-Amino-3,4-SeCo-Triterpenoids” (International Journal of Molecular Sciences, 2021)
Read-outs that look alike come from different tables or passages of the source.

How the values were obtained:
[1] = tested on: A375 cells; assay: Annexin V/PI flow cytometry; type: cell-based, human; details: A375, 48 h, 2 × EC50
Experimental: Due to its good cytotoxic properties, compound 11 was subjected to flow cytometric measurements (Annexin V/PI assay).
Thereby, the BL1-A signal corresponds to the FITC signal for annexin V (x-axis) while PI is detected at BL3-A (y-axis). Thus, cells in R1 correspond to necrotic cells, those in R2 to late apoptosis, cells in R3 are viable cells, and cells in R4 have died from apoptosis.
Approximately 600,000 cells (A375) were seeded in cell culture flasks and were allowed to grow for 1 day. After removing of the medium, the substance loaded medium was added, and the flasks were incubated for 48 h. All cells were harvested, centrifuged (1200 rpm, 5 min), and washed twice (PBS (w/w)). Approximately 100,000 cells were washed with annexin V bounding buffer (BD Biosciences®) and treated with a propidium iodide solution (3 μL, 1 mg/mL) and annexin V (5 μL, BD Biosciences®) for 15 min at room temperature in the dark. After adding annexin V bounding buffer (400 μL) the suspension was submitted to a FACS measurement.

[2] = tested on: HL-60(TB) (Leukemia); assay: NCI-60 screen (SRB, 48 h); type: cell-based; details: Homo sapiens
[3] = tested on: panel of approximately 60 cancer cell lines; assay: NCI-60 screen (SRB, 48 h), full panel
[4] = tested on: OVCAR-3 (Ovarian cancer); details: OVCAR-3, 1 dose 10 µM
[5] = tested on: MCF-7 (breast carcinoma); assay: SRB cytotoxicity assay, 72 h; type: cell-based, human; details: Homo sapiens, MCF7; MCF-7, 72 h, cut-off 30 µM; read-out: EC50
In short: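 Seed, 24 h; compound 0–30 µM serial dilutions, 72 h (DMSO ≤0.5%); fix 10% TCA, 4 °C; stain 0.4% SRB ~20 min; 1% AcOH wash; solubilise 10 mM Tris; A570. EC50 vs untreated.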

C=C(C)[C@@H]1CC[C@]2(C(=O)N[C@H](CO)Cc3ccccc3)CC[C@]3(C)[C@H](CC[C@@H]4[C@@]5(C)CCCNC(C)(C)[C@@H]5CC[C@]43C)[C@@H]12 [Compound 11]
cells died by apoptosis (R4) [1]: 44.3%
necrotic cells (R1) [1]: 1.1%
GI50 [2]: 200 nM
IC (TGI) ([2]; 48 h): 460 nM
number of cancer cell lines the compound was active against ([3]; 1 dose 10 µM): effective against the all NCI-60 cancer cell line panel
activity at 10 µM ([3]; Homo sapiens, 48 h, read-out: Mean Growth, %): -83.1%
activity at 10 µM ([3]; Homo sapiens, 48 h, read-out: Range of Growth, %): -97.9 to -46.7%
IC (TGI) ([3]; Homo sapiens, 48 h, read-out: TGI MG_MID60, average over all cell lines): 2640 nM
GI50 ([3]; Homo sapiens, read-out: GI50 MG_MID60): 1290 nM
GI50 ([3]; Homo sapiens, read-out: GI50 against all human tumor cell lines): < 3000 nM
GI50 ([3]; Homo sapiens, read-out: GI50 against the most sensitive cell lines): 200 to 940 nM
CC50 ([3]; Homo sapiens, read-out: LC50 MG_MID60, average over all cell lines): 5620 nM
Growth % of the Most Sensitive Cell Lines [4]: −95.88%
EC50 [5]: 1170 ± 200 nM
